Data: ChEMBL document CHEMBL1201862, “PubChem BioAssay data set” (2004)
Calls of active or inactive are those of the source.

Experiments:
[1] = NIH-3T3 fibroblast cytotoxicity, dose response, cytotoxicity control, cell-based, fluorescence, Alamar Blue, secondary assay (AID 2327); assay type: functional;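 note: NIH-3T3 mouse fibroblasts cultured with fluconazole at 8 µg/mL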
[2] = C. albicans growth with fluconazole, confirmation, fluorescence, retest (AID 2467); assay type: functional, cell-based
[3] = microbe, parasite or virus in culture; assay type: functional; conditions: Mycobacterium tuberculosis
cells = assay type: functional
[4] = P. falciparum Dd2 growth inhibitors, dose response, SYBR Green, cherry-picked samples (AID 1159567); assay type: functional, cell-based
[5] = HepG2 cell cytotoxicity, dose response, cytotoxicity control, cherry-picked samples (AID 1159577); assay type: functional, cell-based
[6] = inhibitors of firefly luciferase expression or activity, dose response, H4 neuroglioma cells, luminescence (AID 1990); assay type: functional, cell-based
[7] = Luminescence Cell-Based Dose Response HTS to Identify Inhibitors of 5'UTR Stem-Loop Driven Prion Protein mRNA Translation in H4 Neuroglioblastoma Cells. [Related pubchem assays: 1827 (Project Summary), 1813 (Primary HTS)]; assay type: functional
[8] = inhibitors of SNCA 5'UTR-driven reporter translation, confirmation, H4 neuroglioma cells, luminescence (AID 1988); assay type: functional, cell-based
[9] = target: Heat shock protein HSP 90-alpha (Homo sapiens, UniProt P07900); assay type: functional, organism-based
Cytochrome P450 3A4 = Cytochrome P450 3A4 (Homo sapiens, UniProt P08684);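 note: CYP3A4 tested as one member of a cytochrome P450 panel screen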
HEK293 = assay: inhibitors of LMP1-driven NF-kB reporter, dose response, cell-based, HEK293, luciferase, cherry-pick (AID 588343); assay type: functional; conditions: Homo sapiens
[10] = THP-1 cell cytotoxicity, dose response, cytotoxicity control for non-replicating M. tuberculosis project (AID 489025); assay type: functional
[11] = Vero E6 cell cytotoxicity, dose response, cytotoxicity control for non-replicating M. tuberculosis project, secondary assay (AID 492998); assay type: functional, VeroE6; conditions: Vero C1008
Fatty acid synthase [12] = target: T1, Fatty acid synthase (Homo sapiens, UniProt P49327); assay: FAS thioesterase domain inhibitors, dose response, biochemical, endpoint fluorescence intensity, uHTS hits (AID 624327); assay type: functional;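 note: fluorescence from hydrolysis of an O-methyl fluorescein acyl ester substrate by the enzyme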
Fatty acid synthase [13] = target: T1, Fatty acid synthase; assay: FAS thioesterase domain inhibitors, dose response, biochemical, kinetic fluorescence intensity (AID 624326); assay type: functional;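 note: rate of fluorescence rise from hydrolysis of a fluorogenic O-methyl fluorescein ester substrate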
[14] = intracellular Trypanosoma cruzi inhibitors in host cells – cell-based, plate reader, cherry-pick samples, set 3, dose response (AID 651818); assay type: functional;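 note: compounds incubated with infected cells for about four days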
[15] = system: Streptococcus sp. 'group A'; assay: growth inhibition of control SK(-) GAS strain, dose response, counter-screen for streptokinase expression inhibitor project, luminescence, kanamycin, BacTiterGlo, confirmation (AID 1900); assay type: functional, organism-based
Streptokinase A = target: T2, Streptokinase A (Streptococcus pyogenes serotype M1, UniProt P10520); assay: S. pyogenes streptokinase expression inhibitors, potency, dose response, plasminogen activation absorbance, OD405 (AID 1914); assay type: functional, Streptococcus pyogenes M1 GAS;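 note: secreted streptokinase activity via plasminogen activation per viability signal from cell pellet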
T2 sequence (P10520 whole entry): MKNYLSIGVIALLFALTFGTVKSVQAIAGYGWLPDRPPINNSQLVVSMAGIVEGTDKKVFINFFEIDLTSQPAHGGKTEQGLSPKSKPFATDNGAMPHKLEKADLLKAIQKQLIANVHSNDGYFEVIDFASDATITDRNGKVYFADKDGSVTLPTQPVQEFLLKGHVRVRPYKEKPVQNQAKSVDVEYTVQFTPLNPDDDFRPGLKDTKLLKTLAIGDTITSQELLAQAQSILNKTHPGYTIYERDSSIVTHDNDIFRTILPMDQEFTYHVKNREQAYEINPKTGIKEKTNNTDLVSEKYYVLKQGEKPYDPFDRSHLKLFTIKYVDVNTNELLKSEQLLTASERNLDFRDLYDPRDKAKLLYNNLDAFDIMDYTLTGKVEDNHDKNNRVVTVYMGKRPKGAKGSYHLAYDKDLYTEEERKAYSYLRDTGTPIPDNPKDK

Streptococcus = assay: Group A Streptococcus viability loss, dose response, counter-screen for streptokinase expression inhibitor project, luminescence, BacTiterGlo (AID 1915); assay type: functional, organism-based;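 note: potency for reduction of bacterial viability or growth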
[16] = Shn3 3'UTR reporter inhibitors, dose response, cell-based, Clone20 osteoblasts, firefly luciferase, cherry-picked (AID 624132); assay type: functional;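 note: firefly luciferase luminescence from reporter carrying the Shn3 3'UTR in osteoblasts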
[17] = HepG2 cell cytotoxicity, dose response, cytotoxicity control for Shn3 inhibitor project, CellTiter-Glo, cherry-picked (AID 624134); assay type: functional, cell-based
[18] = control 3'UTR Renilla luciferase suppression, dose response, counter-screen for Shn3 inhibitor project, cell-based, Clone20-Shn3RL, cherry-picked (AID 624133); assay type: functional

T1 sequence (P49327 whole entry, the tested form may be a part): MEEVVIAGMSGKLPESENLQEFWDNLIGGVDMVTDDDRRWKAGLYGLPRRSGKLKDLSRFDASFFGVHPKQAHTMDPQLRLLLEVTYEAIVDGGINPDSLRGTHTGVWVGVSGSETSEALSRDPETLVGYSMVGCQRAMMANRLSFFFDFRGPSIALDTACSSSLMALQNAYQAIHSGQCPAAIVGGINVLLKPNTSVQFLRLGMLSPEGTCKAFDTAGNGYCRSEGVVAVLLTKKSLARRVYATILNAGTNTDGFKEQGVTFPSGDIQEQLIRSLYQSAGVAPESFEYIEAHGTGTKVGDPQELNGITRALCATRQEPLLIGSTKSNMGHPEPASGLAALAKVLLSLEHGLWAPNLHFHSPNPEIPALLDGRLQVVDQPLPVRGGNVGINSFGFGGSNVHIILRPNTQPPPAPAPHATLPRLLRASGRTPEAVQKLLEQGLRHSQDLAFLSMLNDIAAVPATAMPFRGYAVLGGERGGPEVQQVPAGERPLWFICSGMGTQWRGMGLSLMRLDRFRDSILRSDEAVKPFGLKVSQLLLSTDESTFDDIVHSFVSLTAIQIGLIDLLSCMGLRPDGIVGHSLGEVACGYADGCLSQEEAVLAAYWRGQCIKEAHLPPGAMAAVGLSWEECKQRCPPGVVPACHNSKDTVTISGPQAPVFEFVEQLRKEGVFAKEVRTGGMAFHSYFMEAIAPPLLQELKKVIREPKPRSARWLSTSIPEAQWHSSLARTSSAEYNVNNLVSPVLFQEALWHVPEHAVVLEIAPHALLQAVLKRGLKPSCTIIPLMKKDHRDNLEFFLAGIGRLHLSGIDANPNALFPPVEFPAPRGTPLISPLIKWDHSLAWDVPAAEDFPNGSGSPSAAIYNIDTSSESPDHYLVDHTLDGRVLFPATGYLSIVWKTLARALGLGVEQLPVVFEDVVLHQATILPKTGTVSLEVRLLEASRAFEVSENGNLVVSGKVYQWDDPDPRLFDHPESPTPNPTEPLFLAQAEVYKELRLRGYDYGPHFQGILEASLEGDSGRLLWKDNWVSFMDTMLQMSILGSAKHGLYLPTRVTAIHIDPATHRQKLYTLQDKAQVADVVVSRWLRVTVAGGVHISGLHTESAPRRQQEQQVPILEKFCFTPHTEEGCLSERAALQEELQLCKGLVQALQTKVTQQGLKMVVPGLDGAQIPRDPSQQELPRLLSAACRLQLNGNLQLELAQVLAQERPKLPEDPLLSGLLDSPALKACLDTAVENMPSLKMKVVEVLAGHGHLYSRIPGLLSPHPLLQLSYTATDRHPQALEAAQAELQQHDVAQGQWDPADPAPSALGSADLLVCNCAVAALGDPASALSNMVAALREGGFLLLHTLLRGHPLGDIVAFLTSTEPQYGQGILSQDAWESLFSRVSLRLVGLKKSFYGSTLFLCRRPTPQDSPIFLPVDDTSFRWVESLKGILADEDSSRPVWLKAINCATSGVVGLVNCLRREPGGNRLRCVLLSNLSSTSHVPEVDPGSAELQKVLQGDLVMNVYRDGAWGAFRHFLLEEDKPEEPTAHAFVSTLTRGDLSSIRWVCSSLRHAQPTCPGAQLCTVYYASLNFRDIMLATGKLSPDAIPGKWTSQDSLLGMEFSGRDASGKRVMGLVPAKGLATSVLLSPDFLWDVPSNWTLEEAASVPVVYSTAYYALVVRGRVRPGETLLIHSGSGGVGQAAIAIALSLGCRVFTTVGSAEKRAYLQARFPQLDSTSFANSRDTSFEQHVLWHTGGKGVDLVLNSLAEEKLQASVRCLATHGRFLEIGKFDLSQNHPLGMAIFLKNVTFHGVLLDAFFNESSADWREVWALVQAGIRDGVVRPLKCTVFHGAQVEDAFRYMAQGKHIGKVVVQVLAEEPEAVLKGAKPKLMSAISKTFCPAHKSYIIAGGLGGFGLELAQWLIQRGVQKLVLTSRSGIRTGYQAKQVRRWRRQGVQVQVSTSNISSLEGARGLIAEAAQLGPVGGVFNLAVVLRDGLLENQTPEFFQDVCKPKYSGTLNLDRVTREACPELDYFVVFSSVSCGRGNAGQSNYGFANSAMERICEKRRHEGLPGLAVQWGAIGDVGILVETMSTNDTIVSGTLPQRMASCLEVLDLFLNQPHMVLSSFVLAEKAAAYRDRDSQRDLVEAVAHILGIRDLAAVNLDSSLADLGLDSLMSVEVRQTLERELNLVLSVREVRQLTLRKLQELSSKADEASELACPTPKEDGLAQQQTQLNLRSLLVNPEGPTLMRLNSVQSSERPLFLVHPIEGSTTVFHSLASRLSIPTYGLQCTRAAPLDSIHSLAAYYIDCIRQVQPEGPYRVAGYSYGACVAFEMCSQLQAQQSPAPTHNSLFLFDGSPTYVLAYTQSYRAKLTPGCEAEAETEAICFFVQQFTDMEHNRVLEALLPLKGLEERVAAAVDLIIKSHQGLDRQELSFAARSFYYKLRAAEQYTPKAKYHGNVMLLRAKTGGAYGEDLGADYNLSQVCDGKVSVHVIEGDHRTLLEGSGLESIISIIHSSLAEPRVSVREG
Cytochrome P450 3A4, sequence (P08684 whole entry): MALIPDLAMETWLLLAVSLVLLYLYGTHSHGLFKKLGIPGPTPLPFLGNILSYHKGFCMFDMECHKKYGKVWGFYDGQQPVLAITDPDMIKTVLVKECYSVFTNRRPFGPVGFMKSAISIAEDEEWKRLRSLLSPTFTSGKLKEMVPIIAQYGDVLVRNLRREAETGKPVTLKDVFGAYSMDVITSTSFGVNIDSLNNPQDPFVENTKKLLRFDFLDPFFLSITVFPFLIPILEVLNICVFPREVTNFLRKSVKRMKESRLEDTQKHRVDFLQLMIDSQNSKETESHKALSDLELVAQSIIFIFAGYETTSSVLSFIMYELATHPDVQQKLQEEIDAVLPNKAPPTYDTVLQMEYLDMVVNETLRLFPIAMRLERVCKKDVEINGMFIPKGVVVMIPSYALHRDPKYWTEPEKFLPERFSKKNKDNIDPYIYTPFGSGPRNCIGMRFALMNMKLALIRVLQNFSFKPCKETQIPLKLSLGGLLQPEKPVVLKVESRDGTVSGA

In the case of `Cc1ccc(C2C3=C(CC(C)(C)CC3=O)N=C3c4ccccc4C(=O)C32)cc1` (stereo not given), the EC50 [1] is reported as 24 µM (active), the EC50 [2] is reported as 1.01 µM (active) and the CC50 [3] is reported as > 40 µM (active).
For `Cc1nn(-c2ccccc2)nc1C(=O)c1c(C)nn(-c2ccccc2)c1O`, the CC50 [3] was 35.8 µM (active) and the IC50 (cells) was 12.8 µM (active).
In the case of `Cc1ccccc1-c1ccc2c(c1)O[C@@H](CN(C)Cc1ccncc1)[C@H](C)CN([C@H](C)CO)S2(=O)=O`, the AC50 [4] is reported as 3.9 µM (active) and the AC50 [5] is reported as > 39 µM (inactive).
With `Cc1cc(-c2cc(-c3ccc(Cl)cc3)nc(N)c2C#N)co1` the EC50 [6] was 20.9 µM (active), the EC50 [7] was > 120 µM (not active) and the EC50 [8] was > 120 µM (not active). The AC50 [9] was 6.87 µM (active) and the AC50 (Cytochrome P450 3A4) was 17.8 µM (inconclusive).
For `COc1cc2c(cc1OC)C(c1ccc(-c3ccccc3Cl)o1)=NCC2`, the AC50 (HEK293) was 15.2 µM (active).
With `CN1C(=O)C(=C(Nc2ccccc2)SCc2ccccc2Cl)C(=O)N(C)C1=O` the CC50 [10] was > 40 µM (active), the CC50 [11] was > 20 µM (active) and the IC50 (cells) was 3.96 µM (active).
For `O=C(CC(=O)N/N=C\c1ccc([N+](=O)[O-])cc1)NCCc1ccccc1`, the IC50 (Fatty acid synthase [12]) was 23.6 µM (inactive) and the IC50 (Fatty acid synthase [13]) was 20.3 µM (inactive).
In the case of `C[C@H](CO)N1C[C@H](C)[C@@H](CN(C)S(=O)(=O)c2ccc(F)cc2)Oc2c(NC(=O)NC3CCCCC3)cccc2C1=O`, the AC50 [14] is reported as 7.84 µM (active).
With `C[C@@H]1CN([C@H](C)CO)C(=O)Cc2cc(NS(=O)(=O)c3ccc(Cl)cc3)ccc2O[C@H]1CN(C)Cc1ccccc1` the AC50 [14] was 3.09 µM (active).
For `COCCn1c(-c2ccc(OC(F)(F)C(F)C(F)(F)F)cc2)nc2c1c(=O)[nH]c(=O)n2CC(C)C` (stereo not given), the CC50 [3] was > 40 µM (active).
In the case of `CC(C)(C)SCCNC(=O)c1ccc(Cl)c([N+](=O)[O-])c1`, the AC50 [9] is reported as 2.84 µM (active), the IC50 (Fatty acid synthase [12]) is reported as 6.39 µM (active) and the IC50 (Fatty acid synthase [13]) is reported as 5.65 µM (active).
For `Cc1ccc(C(=O)CN(CCCC(N)=O)S(=O)(=O)c2ccc([N+](=O)[O-])cc2)cc1`, the IC50 (Fatty acid synthase [12]) was 3.83 µM (active) and the IC50 (Fatty acid synthase [13]) was 2.83 µM (active).
With `COc1ccc(NC(=O)CN(c2ccc([N+](=O)[O-])cc2)S(=O)(=O)c2ccccc2)cc1` the IC50 (Fatty acid synthase [12]) was 7.77 µM (active) and the IC50 (Fatty acid synthase [13]) was 3.48 µM (active).
For `CC(C)=CCc1cc([C@@H]2COc3c(ccc4c3C=CC(C)(C)O4)C2)c(O)cc1O`, the EC50 [15] was 1.8 µM (active), the EC50 (Streptokinase A) was > 150 µM (not active) and the EC50 (Streptococcus) was 5.23 µM (active). For the same molecule, the AC50 [9] was 3.57 µM (active), the AC50 [16] was 7.54 µM (active) and the AC50 [17] was 58.3 µM (active). The AC50 [18] was 4.11 µM (active).
